# Laboratory results as given in patent publication US20250073229A1, “PHARMACEUTICAL COMPOSITION FOR PREVENTING AND/OR TREATING HEART FAILURE” (OSAKA UNIVERSITY, priority 2022, published 2025).
# Test system: left ventricular pressure-loaded model mice (TAC mice)
# Test: Echocardiography in transverse aortic constriction (TAC) left ventricular pressure-loaded model mice
# Assay type: in vivo, C57BL/6 mice
# Protocol: Ten-week-old male C57BL/6 mice (about 25 g) were treated with transverse aortic constriction (TAC) to produce left ventricular pressure-loaded model mice (TAC mice). At 2 weeks after TAC (hypertrophic phase), an osmotic mini-pump (Alzet2006) was implanted subcutaneously, and continuous subcutaneous administration of Compound 011 or a vehicle (a solution obtained by mixing dimethyl sulfoxide and polyethylene glycol 300 in a weight ratio of 1:1) was started at a dose of 5 mg/kg/day. The left ventricular wall thickness (IVS), left ventricular end-diastolic diameter (LVDd), left ventricular fractional shortening (LVFS), and left ventricular ejection fraction (LVEF) were observed and evaluated by echocardiography every two weeks after the start of administration (Compound 011 group: 11 animals; vehicle group: 9 animals). In advance, Compound 011 was administered to non-TAC-treated mice at 5 mg/kg/day with an osmotic mini-pump (Alzet2006) in the same manner, and the blood level (tail vein blood sample) was measured at 2, 4, and 6 weeks after administration and the body blood pressure was measured at 2 weeks after administration to thus confirm that the dose of 5 mg/kg/day could be used for TAC mice.
# [1] = 8 weeks after TAC (6 weeks after start of administration), 5 mg/kg/day continuous subcutaneous by osmotic mini-pump, p<0.05 vs. vehicle
# [2] = 8 weeks after TAC, 5 mg/kg/day continuous subcutaneous
smiles,measurement,setting,value
"O=C(O)c1cnc(N2CCN(c3noc4cccc(C(F)(F)F)c34)CC2)c(Cl)c1 [Compound 011, 5-Chloro-6-(4-(4-(trifluoromethyl)benzo[d]isoxazol-3-yl)piperazin-1-yl)nicotinic acid]",progressive deterioration of LVFS and LVEF,"5 mg/kg/day continuous subcutaneous, vs. vehicle group",significantly suppressed
same,LVEF (left ventricular ejection fraction),[1],80.2±2.7%
same,left ventricular fractional shortening (LVFS) at 8 weeks after TAC,[1],48.8±2.6%
same,"interventricular septum (IVS), difference vs. vehicle group",[2],no significant difference
same,"left ventricular end-diastolic diameter (LVDd), difference vs. vehicle group",[2],no significant difference
